By IC50 is commonly meant the concentration at which inhibition is half-maximal.

Here are results for four compounds from article PMC2760071 (Bioorganic & medicinal chemistry letters, 2009).

Series [1] has as its target T1, ovine COX-1 (Ovis aries, UniProt P05979).
T1 sequence (P05979 25-600): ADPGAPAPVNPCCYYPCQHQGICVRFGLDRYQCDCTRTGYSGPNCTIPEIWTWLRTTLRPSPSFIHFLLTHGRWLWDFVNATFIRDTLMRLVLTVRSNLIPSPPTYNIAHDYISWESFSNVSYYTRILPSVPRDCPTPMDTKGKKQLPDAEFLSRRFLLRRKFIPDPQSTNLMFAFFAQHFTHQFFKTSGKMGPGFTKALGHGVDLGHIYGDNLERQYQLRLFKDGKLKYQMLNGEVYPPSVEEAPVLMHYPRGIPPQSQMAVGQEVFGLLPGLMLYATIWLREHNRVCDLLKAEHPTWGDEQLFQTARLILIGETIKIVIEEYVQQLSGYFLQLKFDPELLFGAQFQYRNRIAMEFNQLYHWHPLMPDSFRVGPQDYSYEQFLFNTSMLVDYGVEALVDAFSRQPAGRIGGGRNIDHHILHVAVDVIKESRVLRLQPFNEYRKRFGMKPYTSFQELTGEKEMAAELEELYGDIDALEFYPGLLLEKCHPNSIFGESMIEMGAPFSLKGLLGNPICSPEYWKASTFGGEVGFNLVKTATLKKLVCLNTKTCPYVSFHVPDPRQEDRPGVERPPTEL
Particulars: COX-1, 50 μM arachidonic acid (saturating).

Series [2] concerns the target T2, murine COX-2 (Mus musculus, UniProt Q05769).
T2 sequence (Q05769 18-604): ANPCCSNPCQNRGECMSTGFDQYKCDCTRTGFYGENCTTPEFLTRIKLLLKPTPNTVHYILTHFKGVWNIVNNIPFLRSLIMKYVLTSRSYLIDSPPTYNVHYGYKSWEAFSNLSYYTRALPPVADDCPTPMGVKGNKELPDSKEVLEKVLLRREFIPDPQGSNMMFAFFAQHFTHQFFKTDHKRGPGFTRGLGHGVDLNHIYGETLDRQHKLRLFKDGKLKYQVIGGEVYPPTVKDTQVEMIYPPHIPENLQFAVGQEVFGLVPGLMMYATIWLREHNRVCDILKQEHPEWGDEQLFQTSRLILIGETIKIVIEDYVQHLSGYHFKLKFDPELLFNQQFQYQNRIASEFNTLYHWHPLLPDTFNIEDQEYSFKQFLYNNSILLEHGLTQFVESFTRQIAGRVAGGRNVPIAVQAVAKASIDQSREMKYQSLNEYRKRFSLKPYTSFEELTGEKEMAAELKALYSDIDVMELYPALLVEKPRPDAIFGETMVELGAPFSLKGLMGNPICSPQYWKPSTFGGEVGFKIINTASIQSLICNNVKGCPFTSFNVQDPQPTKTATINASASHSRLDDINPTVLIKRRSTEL
Nature of the series: Competitive COX inhibition assay, reduced arachidonate. Format: biochemical. Particulars: COX-2, 5 μM arachidonate, at the concentration ranges tested.

The nature of series [3]: Photoisomerization / light stability of E and Z isomers.
The target in series [4] is T2, murine COX-2. As to conditions: COX-2, 50 μM arachidonic acid (saturating).
For series [5], the system named is oCOX-1. Particulars: wild-type oCOX-1; cited from earlier work.
For series [6], the target named is T1, ovine COX-1. As to conditions: COX-1, 5 μM vs 50 μM arachidonate, data not shown.

As to `CSc1ccc(/C=C2\C=C(CC(=O)O)c3cc(F)ccc32)cc1`, the “time-dependent inhibition (in words)” value in series [1] and in series [4] was “no time-dependent inhibition” in each case. Further, the “competitive inhibition (in words)” value in series [2] is recorded as “no inhibition”. Also, the “percentage conversion to the Z-isomer” value in series [3] (370 nm, 24 hours, high-pressure mercury lamp) is recorded as 1-2%.

With `CSc1ccc(/C=C2/C=C(CC(=O)O)c3cc(F)ccc32)cc1` [(Z)-2′-des-methyl sulindac sulfide], in series [3] (natural light, during HPLC purification), the “behaviour on exposure to natural light” value is “photoisomerized to the E-isomer”.

In the case of `COc1ccc2c(c1)c(CC(=O)O)c(C)n2C(=O)c1ccc(Cl)cc1` [Indomethacin, indomethacin], in series [5], the IC50 is […].

On to `CSc1ccc(/C=C2/C(C)=C(CC(=O)O)c3cc(F)ccc32)cc1` [sulindac sulfide, reference compound], for which the “maximal extent (plateau) of inhibition” value in series [1] is on record as “around 75%”. Further, the “photoisomerization (interconversion)” value in series [3] (natural light and ultraviolet conditions) is recorded as “no interconversion was observed”. The “effect of reduced substrate concentration on ability to inhibit” value in series [6] is on record as “not significantly affected”.
